The subject of assay [1] is A(H3N2) virus neuraminidase (NA). The assay is classed as biochemical, influenza A(H3N2) virus.
Assay [2] has as its system B/Victoria-lineage virus neuraminidase (NA). The assay is classed as biochemical, influenza B/Victoria-lineage virus.
For assay [3], the system named is A(H1N1)pdm09 virus neuraminidase (NA). As to conditions: cited from earlier work; for fold increases in IC50s compared to the mean IC50s: previously described A(H1N1)pdm09 virus with S110F AAS, ref Okomo-Adhiambo et al., 2014.
The test system is the same in assay [4]. Format: biochemical, influenza A(H1N1)pdm09 virus.
[5] abbreviates: A(H1N1)pdm09 NA H275Y, ref WHO-AVWG NAI substitution table.

The source of these data is PMC6094047 (Antiviral Research, 2018).

“And” between values parts separate entries of the source, which are not always exact repeats. Equal entries are not always repeated. Where two headings read alike, the source gives them in different places.

In the case of `CC(=O)N[C@H]1[C@H]([C@H](O)[C@H](O)CO)OC(C(=O)O)=C[C@@H]1N=C(N)N` [Zanamivir], the “Fold change in IC50” value is 11 fold and 8.1 fold and 9.1 fold in assay [1]; 1.4 fold and 2.0 fold in assay [2]. For the same molecule, in assay [1], the “inhibition phenotype (NI/RI/HRI)” value is “RI (key: normal inhibition (NI) (type A viruses <10-fold; reduced inhibition (RI) (type A viruses 10- to 100-fold; highly reduced inhibition (HRI) (type A viruses >100-fold)”. Besides, the “fold increases in IC50s compared to the mean IC50s” value in assay [3] is 3–6 fold.
With `CCOC(=O)C1=C[C@@H](OC(CC)CC)[C@H](NC(C)=O)[C@@H](N)C1` [Oseltamivir], in assay [1], the “Fold change in IC50” value stood at 14 fold and the “inhibition phenotype (NI/RI/HRI)” value was “RI (key: normal inhibition (NI) (type A viruses <10-fold; reduced inhibition (RI) (type A viruses 10- to 100-fold; highly reduced inhibition (HRI) (type A viruses >100-fold)”. In assay [2], the “Fold change in IC50” value is 4.1 fold and 2.9 fold. Also, the “inhibition phenotype associated with NA AAS (NI/RI/HRI)” value (“inhibition phenotype associated” for short) in assay [3] (setting [5]) is “HRI (highly reduced inhibition (HRI) (type A viruses >100-fold)”. Besides, in assay [3], the “inhibition phenotype associated” value was “HRI (key: normal inhibition (NI) (type A viruses <10-fold; reduced inhibition (RI) (type A viruses 10- to 100-fold; highly reduced inhibition (HRI) (type A viruses >100-fold)” and the “fold increases in IC50s compared to the mean IC50s” value was 3–6 fold.
Turning to `CCC(CC)[C@H](NC(C)=O)[C@@H]1[C@H](O)[C@@H](C(=O)O)C[C@H]1N=C(N)N` [Peramivir], the “Fold change in IC50” value in assay [2] was 30 fold and 26 fold. For the same molecule, the “inhibition phenotype associated” value in assay [3] (setting [5]) is recorded as “HRI (highly reduced inhibition (HRI) (type A viruses >100-fold)”.
As to `[H]/N=C(\N)N[C@H]1C=C(C(=O)O)O[C@@H]([C@H](OC)[C@H](O)CO)[C@@H]1NC(C)=O` [Laninamivir], the “IC50 fold-change compared to reference median IC50 values” in assay [4] is 1.5–3.4 (8) fold and 2.9 fold. In assay [2], the “Fold change in IC50” value is 1.8 fold and 2.2 fold. For the same molecule, in assay [3], the “inhibition phenotype associated” value is reported as “HRI (key: normal inhibition (NI) (type A viruses <10-fold; reduced inhibition (RI) (type A viruses 10- to 100-fold; highly reduced inhibition (HRI) (type A viruses >100-fold)”.
